The record followed here is patent EP0583821A1, “Atriopeptins, guanylate cyclase activators, and phosphodiesterase inhibitors as treatment for glaucoma, hydrocephalus and cerebral edema (cranial fluid volume dysfunction)” (THE GENERAL HOSPITAL CORPORATION, priority 1987, dated 1988).

Assay [1] has as its target T1, guanylate cyclase (Oryctolagus cuniculus, UniProt G1TXB5).
T1 sequence (G1TXB5 28-1056): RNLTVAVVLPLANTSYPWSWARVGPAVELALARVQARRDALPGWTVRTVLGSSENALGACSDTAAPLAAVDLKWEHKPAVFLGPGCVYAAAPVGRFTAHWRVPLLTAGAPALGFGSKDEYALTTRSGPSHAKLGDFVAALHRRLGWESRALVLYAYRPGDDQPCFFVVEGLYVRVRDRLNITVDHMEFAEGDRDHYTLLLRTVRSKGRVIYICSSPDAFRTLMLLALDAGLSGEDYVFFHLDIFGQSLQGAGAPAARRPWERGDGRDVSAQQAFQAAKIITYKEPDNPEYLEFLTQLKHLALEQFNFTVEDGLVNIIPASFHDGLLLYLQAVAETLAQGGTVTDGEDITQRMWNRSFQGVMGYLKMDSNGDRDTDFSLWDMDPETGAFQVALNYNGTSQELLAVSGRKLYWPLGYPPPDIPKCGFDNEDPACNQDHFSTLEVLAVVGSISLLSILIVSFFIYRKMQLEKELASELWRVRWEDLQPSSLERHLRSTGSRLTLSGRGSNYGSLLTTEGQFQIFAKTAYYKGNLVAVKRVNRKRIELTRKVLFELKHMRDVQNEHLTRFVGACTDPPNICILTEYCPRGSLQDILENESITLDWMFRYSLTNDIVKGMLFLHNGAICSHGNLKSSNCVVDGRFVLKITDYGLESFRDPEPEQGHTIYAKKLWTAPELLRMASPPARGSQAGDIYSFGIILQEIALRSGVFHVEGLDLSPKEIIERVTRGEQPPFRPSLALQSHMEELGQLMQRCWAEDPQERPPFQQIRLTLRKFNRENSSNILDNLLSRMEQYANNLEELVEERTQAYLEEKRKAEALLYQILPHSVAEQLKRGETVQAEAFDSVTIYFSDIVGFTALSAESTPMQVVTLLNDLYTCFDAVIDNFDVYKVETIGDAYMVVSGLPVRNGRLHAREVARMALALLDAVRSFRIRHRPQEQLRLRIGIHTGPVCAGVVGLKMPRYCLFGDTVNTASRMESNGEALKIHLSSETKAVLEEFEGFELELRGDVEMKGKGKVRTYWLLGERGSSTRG
Briefly: Guanylate cyclase in membranes of ventral superior sagittal dural sinus (arachnoid villi). It is filed as biochemical, pig or rabbit. To be noted: small stimulation only at high concentrations; 4 min. Here is the method:
(§1) The effect of rANP on membrane-bound guanylate cyclase and adenylate cyclase activity in various brain-barrier tissues and tissue fractions from rabbit was compared with its activity in cerebrum and cerebellum. Guanylate cyclase was measured as the rate of cyclic GMP formation by modifications of the technique of Waldman et al., supra, incorporated herein by reference. Briefly, tissues were homogenized (10 mg wet weight per milliliter) in 50 mM tris-HCl, pH 8.0, 1 mM EDTA, 1 mM dithiothreitol, and 250 mM sucrose and centrifuged at 100,000g to obtain a P1 pellet. Reaction tubes contained (in 0.3 ml), 50 mM tris, pH 7.6, 6 mM MnCl₂, 0.5 mM 3-isobutyl, 1-methylxanthine (IBMX), 10 mM theophylline, 3 mM GTP, hormone (in 0.03 ml containing 2.5 mM ascorbic acid and 0.1% bovine serum albumin), and 0.06 ml of P1 fraction (40 to 60 ug of protein). The reaction (4 minutes at 30°C) was started by addition of GTP and terminated by addition of 0.3 ml of 150 mM sodium acetate (pH 4.0) and boiling for 3 minutes. Cyclic GMP formed was subsequently measured by radioimmunoassay as described in example 6, infra. Under these conditions, guanylate cyclase activity was linear with time and tissue concentration. Adenylate cyclase activity in P1 fractions was measured according to the method described by Nathanson, et al., Science; 204:843 (1979); Mol. Pharmacol. 18:199 (1980), see Figure 1C . […] Neurosci. […]

For assay [2], the system named is adenylate cyclase. The assay is described as follows: Adenylate cyclase activity in P1 fractions of whole choroid. It is filed as biochemical, rabbit. To be noted: rANP at high concentrations. Here is the method: as §1

Regarding “Ser-Leu-Arg-Arg-atriopeptin III (APIII) [rANP 1-28]”, the Ka in assay [1] is > 1000 nM. Besides, in assay [2], the “effect on adenylate cyclase activity” value was “small inhibition”.
